Values of other authors in patent publication US7892575B2, “Orodispersible pharmaceutical composition for oromucosal or sublingual administration of agomelatine” (Les Laboratoires Servier, priority 2005, dated 2011).

Details: humans

Question: For `COc1ccc2cccc(CCNC(C)=O)c2c1` [agomelatine, N-[2-(7-methoxy-1-naphthyl)ethyl]acetamide], which “bioavailability by the oral route in relation to the parenteral route” value is on record?
Answer: very low
